How the values were obtained:
Assay type in all cases: in vivo
[1] = system: field corn (Zea mays L., var. Dekalb 535, CORN); test: Post-emerge test, crop safety; details: post-emerge, 14 days after application, rating scale 0-100
In short: (§1)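 Fourteen days after spraying, crop and weed injury was graded visually from 0, no effect, to 100, every plant dead. Test substances were dissolved in acetone and applied at 15–1000 g ai/ha with a flat-fan nozzle. Application was either pre-emergence, one day after sowing, or post-emergence at the 2–3 leaf stage.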

[2] = system: upland rice (Oryza sp., var. Tebonnet, RICE); test: Post-emerge test, crop safety; details: post-emerge, 14 days after application, rating scale 0-100
In short: as §1

[3] = system: field corn (Zea mays L., var. Dekalb 535, CORN); test: Pre-emerge test, crop safety; details: crop damage rating 0-100, 14 days after application
In short: (§2)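 Plants grown in 10 cm pots of sandy loam mix received acetone-dissolved compounds through a moving flat-fan nozzle. Doses ranged from 15 to 1000 g ai/ha. Pre-emerge pots were seeded one day earlier, post-emerge pots 8–21 days earlier. Fourteen days on, each pot was graded 0–100 for damage.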

[4] = system: upland rice (Oryza sp., var. Tebonnet, RICE); test: Pre-emerge test, crop safety; details: crop damage rating 0-100, 14 days after application
In short: as §2

[5] = system: sicklepod (Cassia obtusifolia, CASOB); test: Pre-emerge test, greenhouse herbicide activity screening; details: phytotoxicity rating 0-100, 14 days after application
In short: as §1

[6] = system: velvetleaf (Abutilon theophrasti, ABUTH); test: as above; details: phytotoxicity rating 0-100, 14 days after application
In short: as §1

[7] = system: johnsongrass (Sorghum halepense, SORHA); test: as above; details: phytotoxicity rating 0-100, 14 days after application
In short: as §1

[8] = system: green foxtail (Setaria viridis, SETVI); test: as above; details: phytotoxicity rating 0-100, 14 days after application
In short: as §1

[9] = system: ivyleaf morningglory (Ipomoea hederacea, IPOHE); test: as above; details: phytotoxicity rating 0-100, 14 days after application
In short: as §1

[10] = system: large crabgrass (Digitaria sanguinalis, DIGSA); test: as above; details: phytotoxicity rating 0-100, 14 days after application
In short: as §1

[11] = system: lambsquarters (Chenopodium album, CHEAL); test: as above; details: phytotoxicity rating 0-100, 14 days after application
In short: as §1

[12] = system: barnyardgrass (Echinochloa crus-galli, ECHCG); test: as above; details: phytotoxicity rating 0-100, 14 days after application
In short: as §1

[13] = system: common ragweed (Ambrosia artemisizfolia L., AMBEL); test: as above; details: phytotoxicity rating 0-100, 14 days after application
In short: as §1

[14] = system: redroot pigweed (Amaranthus retroflexus, AMARE); test: as above; details: phytotoxicity rating 0-100, 14 days after application
In short: as §2

[15] = system: sicklepod (Cassia obtusifolia, CASOB); test: Post-emerge test, greenhouse herbicide activity screening; details: post-emerge, 14 days after application, rating scale 0-100
In short: (§3)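 Rating: 0–100 visual injury, 14 DAA. Application: acetone, 187 l/ha, 15–1000 g ai/ha, flat-fan track sprayer with nozzle 40–45 cm above soil or canopy. Post-emerge runs used 0.25% v/v surfactant on 2–3 leaf plants.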

[16] = system: velvetleaf (Abutilon theophrasti, ABUTH); test: as above; details: post-emerge, 14 days after application, rating scale 0-100
In short: as §3

[17] = system: johnsongrass (Sorghum halepense, SORHA); test: as above; details: post-emerge, 14 days after application, rating scale 0-100
In short: as §3

[18] = system: green foxtail (Setaria viridis, SETVI); test: as above; details: post-emerge, 14 days after application, rating scale 0-100
In short: as §3

[19] = system: ivyleaf morningglory (Ipomoea hederacea, IPOHE); test: as above; details: post-emerge, 14 days after application, rating scale 0-100
In short: as §3

[20] = system: redroot pigweed (Amaranthus retroflexus, AMARE); test: as above; details: post-emerge, 14 days after application
In short: as §3

[21] = system: large crabgrass (Digitaria sanguinalis, DIGSA); test: as above; details: post-emerge, 14 days after application, rating scale 0-100
In short: as §3

[22] = system: lambsquarters (Chenopodium album, CHEAL); test: as above; details: post-emerge, 14 days after application, rating scale 0-100
In short: as §3

[23] = system: barnyardgrass (Echinochloa crus-galli, ECHCG); test: as above; details: post-emerge, 14 days after application, rating scale 0-100
In short: as §3

[24] = 63 g ai/ha, rating scale 0-100 (0 no damage, 100 complete death)
[25] = 250 g ai/ha, rating scale 0-100

## Cn1c(C(F)(F)F)cc(=O)n(-c2ccc(Cl)cc2NC(=O)OCc2ccccc2F)c1=O [4-49]
[1]; 63 g ai/ha
  phytotoxicity rating CORN (crop damage): 20
[1]; 250 g ai/ha
  phytotoxicity rating CORN (crop damage): 80
[2]; 63 g ai/ha
  phytotoxicity rating RICE (crop damage): 10
[2]; 250 g ai/ha
  phytotoxicity rating RICE (crop damage): 70
[3]; 63 g ai/ha
  Pre-emerge Herbicidal Activity CORN: 0
[3]; 250 g ai/ha
  Pre-emerge Herbicidal Activity CORN: 15
[4]; 63 g ai/ha
  Pre-emerge Herbicidal Activity RICE: 30
[4]; 250 g ai/ha
  Pre-emerge Herbicidal Activity RICE: 25
[5]; 63 g ai/ha
  Pre-emerge Herbicidal Activity CASOB: 30
[5]; 250 g ai/ha
  Pre-emerge Herbicidal Activity CASOB: 60
[6]; 63 g ai/ha
  Pre-emerge Herbicidal Activity ABUTH: 95
[6]; 250 g ai/ha
  Pre-emerge Herbicidal Activity ABUTH: 100
[7]; 63 g ai/ha
  Pre-emerge Herbicidal Activity SORHA: 50
[7]; 250 g ai/ha
  Pre-emerge Herbicidal Activity SORHA: 90
[8]; 63 g ai/ha
  Pre-emerge Herbicidal Activity SETVI: 70
[8]; 250 g ai/ha
  Pre-emerge Herbicidal Activity SETVI: 100
[9]; 63 g ai/ha
  Pre-emerge Herbicidal Activity IPOHE: 40
[9]; 250 g ai/ha
  Pre-emerge Herbicidal Activity IPOHE: 100
[10]; 63 g ai/ha
  Pre-emerge Herbicidal Activity DIGSA: 70
[10]; 250 g ai/ha
  Pre-emerge Herbicidal Activity DIGSA: 100
[11]; 63 g ai/ha
  Pre-emerge Herbicidal Activity CHEAL: 100
[11]; 250 g ai/ha
  Pre-emerge Herbicidal Activity CHEAL: 100
[12]; 63 g ai/ha
  Pre-emerge Herbicidal Activity ECHCG: 10
[12]; 250 g ai/ha
  Pre-emerge Herbicidal Activity ECHCG: 75
[13]; 63 g ai/ha
  Pre-emerge Herbicidal Activity AMBEL: 80
[13]; 250 g ai/ha
  Pre-emerge Herbicidal Activity AMBEL: 60
[14]; 63 g ai/ha
  Pre-emerge Herbicidal Activity AMARE: 100
[14]; 250 g ai/ha
  Pre-emerge Herbicidal Activity AMARE: 100
[15]; 63 g ai/ha
  phytotoxicity rating CASOB: 80
[15]; 250 g ai/ha
  phytotoxicity rating CASOB: 100
[16]; 63 g ai/ha
  phytotoxicity rating ABUTH: 100
[16]; 250 g ai/ha
  phytotoxicity rating ABUTH: 100
[17]; 63 g ai/ha
  phytotoxicity rating SORHA: 0
[17]; 250 g ai/ha
  phytotoxicity rating SORHA: 10
[18]; 63 g ai/ha
  phytotoxicity rating SETVI: 30
[18]; 250 g ai/ha
  phytotoxicity rating SETVI: 30
[19]; 63 g ai/ha
  phytotoxicity rating IPOHE: 80
[19]; 250 g ai/ha
  phytotoxicity rating IPOHE: 100
[20]; [24]
  phytotoxicity rating AMARE: 100
[20]; [25]
  phytotoxicity rating AMARE: 100
[21]; 63 g ai/ha
  phytotoxicity rating DIGSA: 10
[21]; 250 g ai/ha
  phytotoxicity rating DIGSA: 10
[22]; 63 g ai/ha
  phytotoxicity rating CHEAL: 100
[22]; 250 g ai/ha
  phytotoxicity rating CHEAL: 100
[23]; 63 g ai/ha
  phytotoxicity rating ECHCG: 10
[23]; 250 g ai/ha
  phytotoxicity rating ECHCG: 10

## Cn1c(C(F)(F)F)cc(=O)n(-c2ccc(Cl)cc2NC(=O)Oc2ccccc2)c1=O [4-50]
[1]; 63 g ai/ha
  phytotoxicity rating CORN (crop damage): 0
[1]; 250 g ai/ha
  phytotoxicity rating CORN (crop damage): 10
[2]; 63 g ai/ha
  phytotoxicity rating RICE (crop damage): 0
[2]; 250 g ai/ha
  phytotoxicity rating RICE (crop damage): 0
[3]; 63 g ai/ha
  Pre-emerge Herbicidal Activity CORN: 0
[3]; 250 g ai/ha
  Pre-emerge Herbicidal Activity CORN: 0
[4]; 63 g ai/ha
  Pre-emerge Herbicidal Activity RICE: 0
[4]; 250 g ai/ha
  Pre-emerge Herbicidal Activity RICE: 10
[5]; 63 g ai/ha
  Pre-emerge Herbicidal Activity CASOB: 0
[5]; 250 g ai/ha
  Pre-emerge Herbicidal Activity CASOB: 0
[6]; 63 g ai/ha
  Pre-emerge Herbicidal Activity ABUTH: 20
[6]; 250 g ai/ha
  Pre-emerge Herbicidal Activity ABUTH: 100
[7]; 63 g ai/ha
  Pre-emerge Herbicidal Activity SORHA: 0
[7]; 250 g ai/ha
  Pre-emerge Herbicidal Activity SORHA: 0
[8]; 63 g ai/ha
  Pre-emerge Herbicidal Activity SETVI: 0
[8]; 250 g ai/ha
  Pre-emerge Herbicidal Activity SETVI: 10
[9]; 63 g ai/ha
  Pre-emerge Herbicidal Activity IPOHE: 0
[9]; 250 g ai/ha
  Pre-emerge Herbicidal Activity IPOHE: 30
[10]; 63 g ai/ha
  Pre-emerge Herbicidal Activity DIGSA: 0
[10]; 250 g ai/ha
  Pre-emerge Herbicidal Activity DIGSA: 30
[11]; 63 g ai/ha
  Pre-emerge Herbicidal Activity CHEAL: 40
[11]; 250 g ai/ha
  Pre-emerge Herbicidal Activity CHEAL: 100
[12]; 63 g ai/ha
  Pre-emerge Herbicidal Activity ECHCG: 0
[12]; 250 g ai/ha
  Pre-emerge Herbicidal Activity ECHCG: 0
[13]; 63 g ai/ha
  Pre-emerge Herbicidal Activity AMBEL: 0
[13]; 250 g ai/ha
  Pre-emerge Herbicidal Activity AMBEL: 0
[14]; 63 g ai/ha
  Pre-emerge Herbicidal Activity AMARE: 20
[14]; 250 g ai/ha
  Pre-emerge Herbicidal Activity AMARE: 100
[15]; 63 g ai/ha
  phytotoxicity rating CASOB: 0
[15]; 250 g ai/ha
  phytotoxicity rating CASOB: 20
[16]; 63 g ai/ha
  phytotoxicity rating ABUTH: 60
[16]; 250 g ai/ha
  phytotoxicity rating ABUTH: 95
[17]; 63 g ai/ha
  phytotoxicity rating SORHA: 0
[17]; 250 g ai/ha
  phytotoxicity rating SORHA: 0
[18]; 63 g ai/ha
  phytotoxicity rating SETVI: 0
[18]; 250 g ai/ha
  phytotoxicity rating SETVI: 0
[19]; 63 g ai/ha
  phytotoxicity rating IPOHE: 30
[19]; 250 g ai/ha
  phytotoxicity rating IPOHE: 90
[20]; [24]
  phytotoxicity rating AMARE: 30
[20]; [25]
  phytotoxicity rating AMARE: 70
[21]; 63 g ai/ha
  phytotoxicity rating DIGSA: 0
[21]; 250 g ai/ha
  phytotoxicity rating DIGSA: 0
[22]; 63 g ai/ha
  phytotoxicity rating CHEAL: 40
[22]; 250 g ai/ha
  phytotoxicity rating CHEAL: 95
[23]; 63 g ai/ha
  phytotoxicity rating ECHCG: 0
[23]; 250 g ai/ha
  phytotoxicity rating ECHCG: 0

— patent publication US6355799B1, “Substituted benzene compounds, process for their preparation, and herbicidal and defoliant compositions containing them” (ISK Americas Incorporated, priority 1997, dated 2002)
